Data as given in US4452793A, “29-Fluorophytosterol termiticides, compositions and methods of use therefor” (The Research Foundation of State University of New York, priority 1983, dated 1984).
In brackets after ≈: the same amount, converted by molar mass.

Legend:
Manduca sexta [1] = assay: Sterol distribution in experimental hornworms (capillary GC of gut-purged prepupae); format: in vivo, tobacco hornworm (Manduca sexta); conditions: fed at 50 ppm in diet; mean relative area % of GC, 4 hornworms, S.D. in parentheses
Description: (§1) The recrystallized 29-fluorosterols are dissolved in dichloromethane and then coated onto the wheat germ to give a final concentration to 50 ppm (w/v) in the articifical diet. Controls receive either 50 ppm of stigmasterol or no additional sterols. The dose are varied in subsequent experiments. Twenty first instar tobacco hornworms larvae (Manduca sexta, seventh day after egg collection) are then placed on a 0.5-g slab of diet in a 1-oz dish; this is designated as Day 0 of feeding. Larvae were maintained at 65% relative humidity and 26° C. on a 17L/7D long day light regime. Diets are changed and larvae are weighed and staged daily. The mean survival, weight gain, and developmental periods of the experimental hornworms are shown relative to a group of twenty control larvae in FIG. 1.
Four gut-purged prepupae from each experiment are frozen and later are analyzed individually for sterol composition. Each hornworm is homogenized (1:1 chloroform-methanol), the lipids is saponified, and the non-saponifiable lipis are chromatographed to give the sterol fraction. Analysis by capillary GC (Durabon DB-5 or DB-1701) allowed resolution an accurate quantification of cholesterol, desmosterol, campesterol, stiosterol and fucosterol from test insects. The results, present in Table 1, illustrate the insect metabolism.

Manduca sexta [2] = assay: Insecticide bioassay of 29-fluorophytosterols in tobacco hornworm larvae (artificial diet); format: in vivo, tobacco hornworm (Manduca sexta); conditions: for LC50: Manduca sexta, po, 504 h, day 21, read-out: Dose for 50% reduction, survival (larvae, day 21) (LC50); for LC50 / Dose for 50% reduction, maximum larval weight (EC50) / Dose for 50% reduction, pupation (EC50): parts per million (w/v) in the final diet
Description: as §1
Inequality signs indicate that the effect indicated was beyond the range of doses tested and could not be reliably obtained by extrapolation of the log concentration vs. probit response plots. All values are reported as parts per million (w/v) in the final diet.

## CC(C)[C@H](CCF)CC[C@@H](C)[C@H]1CC[C@H]2[C@@H]3CC=C4C[C@@H](O)CC[C@]4(C)[C@H]3CC[C@]12C [29-fluorositosterol]
Manduca sexta [1]
  Relative percent sterol: campesterol: 7.8(3) %
  Relative percent sterol: cholesterol: 82.4(8) %
  Relative percent sterol: desmosterol: 5.2(8) %
  Relative percent sterol: sitosterol: 4.6(4) %
Manduca sexta [2]
  LC50: 300 µg/mL (≈ 693 µM)
  Dose for 50% reduction, maximum larval weight (EC50): 110 ppm
  Dose for 50% reduction, pupation (EC50): 150 ppm

## CC(C)[C@@H](/C=C/[C@@H](C)[C@H]1CC[C@H]2[C@@H]3CC=C4C[C@@H](O)CC[C@]4(C)[C@H]3CC[C@]12C)CCF [29-fluorostigmasterol]
Manduca sexta [2]
  LC50: 4 µg/mL (≈ 9.29 µM)
  Dose for 50% reduction, maximum larval weight (EC50): 1 ppm
  Dose for 50% reduction, pupation (EC50): 1 ppm
Manduca sexta [2]; hornworms fed at 50 ppm
  Survivors present for analysis: No survivors

## CC(C)[C@H](/C=C/[C@@H](C)[C@H]1CC[C@H]2[C@@H]3CC=C4C[C@@H](O)CC[C@]4(C)[C@H]3CC[C@]12C)CCF [29-fluoroporiferasterol]
Manduca sexta [1]
  Relative percent sterol: campesterol: 16.3(2) %
  Relative percent sterol: cholesterol: 65.6(8) %
  Relative percent sterol: desmosterol: 5.8(2) %
  Relative percent sterol: sitosterol: 12.3(5) %

## CC(C)[C@@H](CCF)CC[C@@H](C)[C@H]1CC[C@H]2[C@@H]3CC=C4C[C@@H](O)CC[C@]4(C)[C@H]3CC[C@]12C [29-fluoroclionosterol]
Manduca sexta [1]
  Relative percent sterol: campesterol: 9.5(1) %
  Relative percent sterol: cholesterol: 82.5(2) %
  Relative percent sterol: desmosterol: 2.0(2) %
  Relative percent sterol: sitosterol: 5.9(1) %

## CC(C)/C(=C/CF)CC[C@@H](C)[C@H]1CC[C@H]2[C@@H]3CC=C4C[C@@H](O)CC[C@]4(C)[C@H]3CC[C@]12C [29-fluorofucosterol]
Manduca sexta [1]
  Relative percent sterol: campesterol: 10.0(2) %
  Relative percent sterol: cholesterol: 82.2(2) %
  Relative percent sterol: desmosterol: 1.0(1) %
  Relative percent sterol: sitosterol: 5.8(2) %
Manduca sexta [2]
  LC50: 48 µg/mL (≈ 111 µM)
  Dose for 50% reduction, maximum larval weight (EC50): 26 ppm
  Dose for 50% reduction, pupation (EC50): 31 ppm
